Assay results published in PubChem BioAssay (NCI).
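GI50 marks 50% less growth. Definition used: TGI = concentration required for complete inhibition of growth.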

Tests used:
Experiment in all cases: NCI tumour cell line growth inhibition, 384-well format
[1] = system: 786-0 renal
[2] = system: A498 renal
[3] = system: A549 NSCLC
[4] = system: ACHN renal
[5] = system: BT-549 breast
[6] = system: CAKI-1 renal
[7] = system: CCRF-CEM leukemia
[8] = system: COLO 205 colon
[9] = system: EKVX NSCLC
[10] = system: HCC-2998 colon
[11] = system: HCT-116 colon
[12] = system: HCT-15 colon
[13] = system: HL-60(TB) leukemia
[14] = system: HOP-62 NSCLC
[15] = system: HOP-92 NSCLC
[16] = system: HS 578T breast
[17] = system: HT29 colon
[18] = system: IGROV1 ovarian
[19] = system: K-562 leukemia
[20] = system: KM12 colon
[21] = system: LOX IMVI melanoma
[22] = system: M14 melanoma
[23] = system: MALME-3M melanoma
[24] = system: MCF7 breast
[25] = system: MDA-MB-231 breast
[26] = system: MDA-MB-435 melanoma
[27] = system: MDA-MB-468 breast
[28] = system: MOLT-4 leukemia
[29] = system: NCI-H226 lung
[30] = system: NCI-H23 lung
[31] = system: NCI-H322M lung
[32] = system: NCI-H460 NSCLC
[33] = system: NCI-H522 lung
[34] = system: NCI/ADR-RES ovarian
[35] = system: OVCAR-3 ovarian
[36] = system: OVCAR-4 ovarian
[37] = system: OVCAR-5 ovarian
[38] = system: OVCAR-8 ovarian
[39] = system: PC-3 prostate
[40] = system: RPMI-8226 leukemia
[41] = system: RXF 393 renal
[42] = system: SF-268 CNS
[43] = system: SF-295 CNS
[44] = system: SF-539 CNS
[45] = system: SK-MEL-2 melanoma
[46] = system: SK-MEL-28 melanoma
[47] = system: SK-MEL-5 melanoma
[48] = system: SK-OV-3 ovarian
[49] = system: SN12C renal
[50] = system: SNB-19 CNS
[51] = system: SNB-75 CNS
[52] = system: SR leukemia
[53] = system: SW-620 colon
[54] = system: TK-10 renal
[55] = system: U251 glioblastoma
[56] = system: UACC-257 melanoma
[57] = system: UACC-62 melanoma
[58] = system: UO-31 renal

Compound: C=CC(=O)Nc1cccc(C)c1Nc1ncc2cc(-c3c(Cl)c(OC)cc(OC)c3Cl)ccc2n1
- GI50 [1]: 1.29 µM
- TGI [1]: 5.33 µM
- GI50 [2]: 0.614 µM
- TGI [2]: 2.03 µM
- GI50 [3]: 2.12 µM
- TGI [3]: 7.94 µM
- GI50 [4]: 2.93 µM
- TGI [4]: 23.7 µM
- GI50 [5]: 0.843 µM
- TGI [5]: 2.44 µM
- GI50 [6]: 2.06 µM
- TGI [6]: 13.6 µM
- GI50 [7]: 1.34 µM
- TGI [7]: 2.65 µM
- GI50 [8]: 2.01 µM
- TGI [8]: 12.2 µM
- GI50 [9]: 1.84 µM
- TGI [9]: 4.55 µM
- GI50 [10]: 2 µM
- TGI [10]: 4.83 µM
- GI50 [11]: 1.73 µM
- TGI [11]: 3.89 µM
- GI50 [12]: 1.94 µM
- TGI [12]: 4.93 µM
- GI50 [13]: 1.1 µM
- TGI [13]: 2.38 µM
- GI50 [14]: 0.775 µM
- TGI [14]: 2.34 µM
- GI50 [15]: 2.25 µM
- TGI [15]: 6.44 µM
- GI50 [16]: 1.26 µM
- TGI [16]: 3.18 µM
- GI50 [17]: 2.44 µM
- TGI [17]: 9.75 µM
- GI50 [18]: 2.76 µM
- TGI [18]: 7.89 µM
- GI50 [19]: 1.39 µM
- TGI [19]: 3.21 µM
- GI50 [20]: 1.93 µM
- TGI [20]: 5.2 µM
- GI50 [21]: 1.38 µM
- TGI [21]: 2.74 µM
- GI50 [22]: 3.57 µM
- TGI [22]: 12.9 µM
- GI50 [23]: 2.53 µM
- TGI [23]: 9.94 µM
- GI50 [24]: 1.37 µM
- TGI [24]: > 100 µM
- GI50 [25]: 1.89 µM
- TGI [25]: 5.64 µM
- GI50 [26]: 2.17 µM
- TGI [26]: 5.35 µM
- GI50 [27]: 0.207 µM
- TGI [27]: 1.6 µM
- GI50 [28]: 0.736 µM
- TGI [28]: 2.13 µM
- GI50 [29]: 1.11 µM
- TGI [29]: 6.08 µM
- GI50 [30]: 1.84 µM
- TGI [30]: 5.12 µM
- GI50 [31]: 2.63 µM
- TGI [31]: 9.02 µM
- GI50 [32]: 0.717 µM
- TGI [32]: 2.09 µM
- GI50 [33]: 1.3 µM
- TGI [33]: 3.01 µM
- GI50 [34]: 2.03 µM
- TGI [34]: 4.95 µM
- GI50 [35]: 1.1 µM
- TGI [35]: 2.94 µM
- GI50 [36]: 2.78 µM
- TGI [36]: 14.3 µM
- GI50 [37]: 4.44 µM
- TGI [37]: > 100 µM
- GI50 [38]: 1.48 µM
- TGI [38]: 3 µM
- GI50 [39]: 1.01 µM
- TGI [39]: 2.6 µM
- GI50 [40]: 0.276 µM
- TGI [40]: 1.26 µM
- GI50 [41]: 0.573 µM
- TGI [41]: 1.97 µM
- GI50 [42]: 1.55 µM
- TGI [42]: 3.81 µM
- GI50 [43]: 2.77 µM
- TGI [43]: 10.5 µM
- GI50 [44]: 0.615 µM
- TGI [44]: 1.93 µM
- GI50 [45]: 0.894 µM
- TGI [45]: 2.2 µM
- GI50 [46]: 2.59 µM
- TGI [46]: 8.3 µM
- GI50 [47]: 1.46 µM
- TGI [47]: 3.38 µM
- GI50 [48]: 1.69 µM
- TGI [48]: 17 µM
- GI50 [49]: 2.33 µM
- TGI [49]: 7.56 µM
- GI50 [50]: 2 µM
- TGI [50]: 7.72 µM
- GI50 [51]: 1.12 µM
- TGI [51]: 3.8 µM
- GI50 [52]: 0.348 µM
- TGI [52]: 1.54 µM
- GI50 [53]: 2.05 µM
- TGI [53]: 6.31 µM
- GI50 [54]: 1.98 µM
- TGI [54]: 5.92 µM
- GI50 [55]: 1.52 µM
- TGI [55]: 3.74 µM
- GI50 [56]: 1.18 µM
- TGI [56]: 3.35 µM
- GI50 [57]: 1.75 µM
- TGI [57]: 4.9 µM
- GI50 [58]: 2.23 µM
- TGI [58]: 6.74 µM
